# Measurements: US20100190710A1, “IL-23 RECEPTOR ANTAGONISTS AND USES THEREOF” (Valorisation HSJ, Societe en Commandite, priority 2007, published 2010)
# “Also recorded” adds a separate entry of the source. Peptide text beside a SMILES is read from it.
# What was measured:
# IL-23R = target: T1, IL-23R (Mus musculus, UniProt Q8K4B4); assay: IL-23-induced STAT3 phosphorylation in differentiated TH17 cells (Alpha Screen SureFire p-STAT-3); assay type: cell-based; conditions: listed as APG-2309
# T1 construct: Spleens were sterilely removed from mice, sliced, and mashed in the presence of PBS buffer; from tissue; host or cells: mouse spleen: freshly isolated splenocytes, and CD4+ cells differentiated into TH17 cells
# T1 sequence (Q8K4B4 24-644): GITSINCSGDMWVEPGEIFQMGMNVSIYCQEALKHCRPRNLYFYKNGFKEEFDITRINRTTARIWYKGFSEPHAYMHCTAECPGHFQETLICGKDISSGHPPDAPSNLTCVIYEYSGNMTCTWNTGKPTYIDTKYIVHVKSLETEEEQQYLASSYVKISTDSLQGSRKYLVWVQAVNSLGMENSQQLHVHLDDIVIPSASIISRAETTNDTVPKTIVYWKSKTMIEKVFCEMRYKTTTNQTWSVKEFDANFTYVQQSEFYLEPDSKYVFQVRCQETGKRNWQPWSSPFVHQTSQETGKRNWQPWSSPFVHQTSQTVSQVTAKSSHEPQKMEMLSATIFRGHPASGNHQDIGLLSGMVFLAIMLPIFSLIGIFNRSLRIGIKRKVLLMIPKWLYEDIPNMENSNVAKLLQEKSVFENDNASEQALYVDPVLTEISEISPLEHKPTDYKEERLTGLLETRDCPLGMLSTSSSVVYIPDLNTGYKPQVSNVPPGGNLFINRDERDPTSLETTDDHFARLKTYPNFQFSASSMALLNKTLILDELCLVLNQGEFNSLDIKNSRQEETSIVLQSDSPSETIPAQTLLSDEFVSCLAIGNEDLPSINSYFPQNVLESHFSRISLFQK
# Procedure: CD4+ cells were isolated from 2.5×10^8 splenocytes with the EasySep isolation kit (StemCell Technologies) according to the manufacturer's instructions. CD4+ cells were incubated overnight with non-essential amino acids and anti-CD3 and CD28 antibodies (see above). The next day the cells were split into 12-well plates (1-2×10^6 cells/well) and incubated with complete RPMI medium (10% FBS, Pen/Strep, and non-essential amino acids (1×)) and a differentiation cocktail containing 2 μg/ml of anti-CD3, 2 μg/ml of anti-CD28, 5 ng/ml of TGFb1, 20 ng/ml of IL-6, 10 ng/ml of IL-23, 2 μg/ml of anti-rat anti IFNγ and 10 μg/ml of anti-mouse IL-4 (final concentrations).
# Splenocytes or TH17 cells were distributed in 384-well plates (Optiplate; Perkin Elmer) (100,000 cells/well). Cells were pre-incubated for 30 minutes with different concentrations of peptide APG-2305 or APG-2309 and incubated with 25 ng/ml of IL-23 (R&D systems) for 10 minutes. STAT3 phosphorylation was determined with the kit Alpha Screen SureFire p-STAT-3 assay from Perkin Elmer according to manufacturer's instructions. Briefly, after incubation with IL-23, cells were lysed and contacted with (1) protein A acceptor conjugated beads coated with anti-p-STAT-3 (Tyr705) and (2) streptavidin-coated donor beads. The resulting signal was measured with a Perkin Elmer Wallac En vision 2104 Multilabel reader. […]
# [1] = tested on: PMA-induced dermatitis (ear); assay: PMA-induced dermatitis, intraperitoneal injection; assay type: in vivo, CD-1 mice; conditions: intraperitoneal injection (0.1-1 mg/kg/day)
# Procedure: FIG. 12 is a series of images and graphs showing the effect of intraperitoneal injection of the 2309 peptide on PMA-induced dermatitis. On day 1, 10 μl of a 0.01% solution of PMA (v/v in acetone) was applied on the external and internal surfaces of the left ear of CD-1 mice (images in left column). Twenty-four hours later, different doses of the 2309 peptide were injected intraperitoneally (0.1 mg/kg/day; 0.5 mg/kg/day; 1 mg/kg/day bid; n=4 for each group treatment). Animals were sacrificed on day 4 (6 hours after the last 2309 injection). The weight (right column, top graph) and thickness (right column, bottom graph) of all ear punches were then determined and the peptide-treated ears with PMA were compared to PMA-only ears.
# MOG-induced EAE = assay: Experimental Autoimmune Encephalitis (EAE) model; assay type: in vivo, C57/BL6 mice; conditions: for clinical signs of EAE: intraperitoneal
# [2] = three times a day (3 mg/kg/day), Sudan black stain, listed as APG-2309
smiles,measurement,setting,value
"CSCC[C@@H](N)C(=O)N[C@H](CCC(=O)O)C(=O)N[C@H](CCC(=O)O)C(=O)N[C@H](CO)C(=O)N[C@H](CCCCN)C(=O)N[C@H](CCC(N)=O)C(=O)N[C@H](CC(C)C)C(=O)N[C@H](CCC(N)=O)C(=O)N[C@H](CC(C)C)C(=O)O [Peptide 2309, MEESKQLQL] (HELM PEPTIDE1{[dM].[dE].[dE].[dS].[dK].[dQ].[dL].[dQ].[dL]}$$$$V2.0; N-terminus and C-terminus assumed)",effect on IL-23-induced STAT3 phosphorylation,IL-23R,inhibit; also recorded: showed efficacy
same,redness and ear weight,[1],able to treat PMA-induced dermatitis as evidenced by a decrease in redness and ear weight
same,EAE-induced demyelination of the cerebellum,MOG-induced EAE; [2],protects against EAE-induced demyelination of the cerebellum; also recorded: totally prevents
same,EAE-induced demyelination of the spinal cord,MOG-induced EAE; [2],protects against EAE-induced demyelination of the spinal cord; also recorded: totally prevents
same,clinical signs of EAE,MOG-induced EAE; treatment three times a day,completely abolished the induction of the disease symptoms
same,clinical signs of EAE,MOG-induced EAE; twice a day at 2 mg/kg/day,retarded the appearance of the clinical signs of EAE
